From US5466673A, “Method of inhibiting calcium precipitation in an intraocular irrigating solution” (Senju Pharmaceutical Co., Ltd., priority 1993, dated 1995)

Test system: blood-aqueous barrier of the eye
Assay: Effect of the present compound on the blood-aqueous barrier of the eye (anterior chamber irrigation, carboxy-fluorescein leakage)
Assay type: in vivo, White rabbits
Conditions: mean ± S.E.
Description: White rabbits weighing about 2.5 kg were used.
Physiological saline, 0.06, 0.6 and 6 mM solutions of DCE-GS in physiological saline, and a 0.3 mM solution of GSSG (oxidized glutathione)in physiological saline were used as intraocular irrigating solutions and their effects on the blood-aqueous barrier of the eye were evaluated.
Two 23 G needles connected to a polyethylene tube were gently inserted into the anterior chamber of the eye of rabbits under anesthesia (ketamine hydrochloride: xylazine hydrochloride=1:1) and 0.5 ml/kg of 1% carboxy-fluorescein was injected into the auricular vein immediately before irrigation. Using a syringe pump, the intraocular irrigating solution was infused at the rate of 1.5 ml/min. and 25 μl of the outflowing intraocular irrigating solution and the blood were respectively collected at 15-minute intervals over the period of 1 hour and the intensity of florescence of each sample was determined with a spectrophotofluorometer. The collected blood was mixed with 2.5 ml of physiological saline and the mixture was centrifuged at 3000 rpm to separate the supernatant for use as a sample.
The degree (4) of protein leakage was calculated by means of the following equation. (Intensity of fluorescence of irrigating solution/intensity of fluorescence of blood)×100 (%)

Compound | degree of protein leakage (0.06 mM in physiological saline, irrigation 1.5 ml/min, time 15 min, n 7) | degree of protein leakage (0.06 mM in physiological saline, time 30 min, n 7) | degree of protein leakage (0.06 mM in physiological saline, time 45 min, n 7) | degree of protein leakage (0.06 mM in physiological saline, time 60 min, n 7) | degree of protein leakage (0.6 mM in physiological saline, time 15 min, n 8) | degree of protein leakage (0.6 mM in physiological saline, time 30 min, n 8) | degree of protein leakage (0.6 mM in physiological saline, time 45 min, n 8) | degree of protein leakage (0.6 mM in physiological saline, time 60 min, n 8) | degree of protein leakage (6 mM in physiological saline, time 15 min, n 5) | degree of protein leakage (6 mM in physiological saline, time 30 min, n 5) | degree of protein leakage (6 mM in physiological saline, time 45 min, n 5) | degree of protein leakage (6 mM in physiological saline, time 60 min, n 5) | degree of protein leakage (0.3 mM in physiological saline, time 15 min, n 5) | degree of protein leakage (0.3 mM in physiological saline, time 30 min, n 5) | degree of protein leakage (0.3 mM in physiological saline, time 45 min, n 5) | degree of protein leakage (0.3 mM in physiological saline, time 60 min, n 5)
N[C@@H](CCC(=O)N[C@@H](CSC(CC(=O)O)C(=O)O)C(=O)NCC(=O)O)C(=O)O (stereo partly drawn) [DCE-GS, S-(α,β-dicarboxyethyl) glutathione] | 0.16 ± 0.02% | 0.23 ± 0.05% | 0.11 ± 0.05% | 0.18 ± 0.03% | 0.13 ± 0.01% | 0.19 ± 0.02% | 0.15 ± 0.02% | 0.13 ± 0.02% | 0.13 ± 0.02% | 0.16 ± 0.02% | 0.22 ± 0.04% | 0.15 ± 0.02% | – | – | – | –
oxidized glutathione [GSSG, reference compound] | – | – | – | – | – | – | – | – | – | – | – | – | 0.22 ± 0.03% | 0.17 ± 0.01% | 0.15 ± 0.03% | 0.15 ± 0.03%
